# Reference: US8853193B2, “Thienopyrimidines containing a substituted alkyl group for pharmaceutical compositions” (Boehringer Ingelheim International GmbH, priority 2010, dated 2014)
# Counter-ions that a name gives are not always drawn.
# Target: human Mnk2a (Homo sapiens (Human), UniProt Q9HBH9)
# Assay: Mnk2a in vitro kinase assay (indirect competitive fluorescence polarization)
# Assay type: biochemical
# Conditions: pre-activated GST-Mnk2a 2.5 nM, 20 μM ATP, 30 μM substrate peptide; read-out: MNK2 IC50
# Outline: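 GST-tagged human Mnk2a expressed in E. coli and glutathione-purified, then activated at 2.5 μM with 150 nM pre-activated NHis-ERK2 and 50 μM ATP in HEPES/KOH pH 7.4, MgCl2, DTT, Brij 78 for 45 min at 30 °C. Phospho-peptide product read by indirect competitive fluorescence polarization against fluorophore-labelled phospho-peptide bound to phospho-specific antibody.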
# Chain of human Mnk2a (Q9HBH9 whole entry): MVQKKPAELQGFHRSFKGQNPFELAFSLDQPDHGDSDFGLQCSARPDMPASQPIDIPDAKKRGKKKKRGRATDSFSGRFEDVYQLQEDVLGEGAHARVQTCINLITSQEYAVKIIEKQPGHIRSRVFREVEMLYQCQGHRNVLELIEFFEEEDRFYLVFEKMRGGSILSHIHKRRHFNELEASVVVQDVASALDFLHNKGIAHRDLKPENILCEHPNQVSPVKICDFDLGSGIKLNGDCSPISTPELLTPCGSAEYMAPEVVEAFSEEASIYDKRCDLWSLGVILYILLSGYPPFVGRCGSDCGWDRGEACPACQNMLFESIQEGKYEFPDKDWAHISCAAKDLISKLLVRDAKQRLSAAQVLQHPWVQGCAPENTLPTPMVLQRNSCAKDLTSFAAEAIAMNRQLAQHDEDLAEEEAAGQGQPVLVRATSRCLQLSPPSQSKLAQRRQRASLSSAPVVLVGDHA
row,SMILES,IC50 [µM]
1,"COC(=O)c1sc2ncnc(Nc3ccc(F)cc3OC(CN)CNC(C)=O)c2c1C (centres unmarked) [Compound 19-1, Methyl 4-(2-(1-acetamido-3-aminopropan-2-yloxy)-4-fluorophenylamino)-5-methylthieno[2,3-d]pyrimidine-6-carboxylate trifluoroacetate]",1.53
2,"Cc1c(C(=O)NCCCN(C)C)sc2ncnc(Nc3ccc(C#N)cc3OC(CF)CF)c12 [Compound 49, 4-(4-Cyano-2-(2-fluoro-1-fluoromethyl-ethoxy)-phenylamino]-5-methyl-thieno[2,3-d]pyrimidine-6-carboxylic acid (3-dimethylamino-propyl)-amide]",0.008
3,"COC(=O)c1sc2ncnc(Nc3ccc(F)cc3OC(C)CNC(=O)C(C)C)c2c1C (centres unmarked) [Compound 3-5, Methyl 4-(4-fluoro2-(1-isobutyramidopropan-2-yloxy)phenylamino)-5-methylthieno[2,3-d]-pyrimidine-6-carboxylate]",0.443
4,"COC(=O)c1sc2ncnc(Nc3ccc(F)cc3OC(C)C(=O)NCCCN)c2c1C (centres unmarked) [Compound 56, 4-{2-[1-(3-Amino-propylcarbamoyl)-ethoxy]-4-fluoro-phenylamino}-5-methyl-thieno[2,3-d]pyrimidine-6-carboxylic acid methyl ester]",0.314
5,"Cc1c(C(=O)O)sc2ncnc(Nc3ccc(F)cc3OC(C)CN)c12 (centres unmarked) [Compound 7, 4-(2-(1-Aminopropan-2-yloxy)-4-fluorophenylamino)-5-methyl-thieno[2,3-d]pyrimidine-6-carboxylic acid trifluoroacetate]",0.014
6,Cc1c(C(N)=O)sc2ncnc(Nc3ccc(F)cc3OC(C)C#N)c12 (centres unmarked) [Compound 54],0.011
7,"COC(=O)c1sc2ncnc(Nc3ccc(F)cc3OC(C)CCNC(C)=O)c2c1C (centres unmarked) [Compound 13-2, Methyl 4-(2-(4-acetamidobutan-2-yloxy)-4-fluorophenyl-amino)-5-methyl-thieno[2,3-d]pyrimidine-6-carboxylate]",0.471
8,"COC(=O)c1sc2ncnc(Nc3ccc(F)cc3OC(C)CCNS(C)(=O)=O)c2c1C (centres unmarked) [Compound 13, Methyl 4-(4-fluoro-2-(4-(methylsulfonamido)butan-2yloxy)phenylamino)-5-methyl-thieno[2,3-d]pyrimidine-6-carboxylate]",0.09
9,"Cc1c(C(=O)N[C@@H]2C[C@H]2N)sc2ncnc(Nc3ccc(F)cc3OC(CF)CF)c12 (relative stereo) [Compound 25, N-((trans)-2-Aminocyclopropyl)-4-(2-(1,3-difluoropropan-2-yloxy)-4-fluorophenylamino)-5-methylthieno[2,3-d]pyrimidine-6-carboxamide hydrochloride]",0.012
10,"Cc1c(C(=O)O)sc2ncnc(Nc3cccnc3OC(C)CCNS(C)(=O)=O)c12 (centres unmarked) [Compound 44, 4-[2-(3-Methanesulfonylamino-1-methyl-propoxy)-pyridin-3-ylamino]-5-methyl-thieno[2,3-d]pyrimidine-6-carboxylic acid]",0.024
11,"Cc1c(C(=O)NCCO)sc2ncnc(Nc3ccc(F)cc3OC(C)C(=O)NCCCN)c12 (centres unmarked) [Compound 57, 4-{2-[1-(3-Amino-propylcarbamoyl)-ethoxy]-4-fluoro-phenylamino}-5-methyl-thieno[2,3-d]pyrimidine-6-carboxylic acid (2-hydroxy-ethyl)-amide]",0.11
12,"COC(=O)c1sc2ncnc(Nc3ccc(F)cc3OC(C)CNC(C)=O)c2c1C (centres unmarked) [Compound 3-4, Methyl 4-(2-(1-acet-amidopropan-2-yloxy)-4-fluorophenylamino)-5-methylthieno[2,3-d]pyrimidine-6-carboxylate]",0.261
13,"Cc1c(C(N)=O)sc2ncnc(Nc3cccnc3OC(C)C)c12 [Compound 35, 4-(2-Isopropoxypyridin-3-ylamino)-5-methyl-thieno[2,3-d]pyrimidine-6-carboxamide]",0.012

# Second part, the compound after the results:
row,IC50 [µM],SMILES
1,0.042,"Cc1c(C(=O)NCCCN(C)C)sc2ncnc(Nc3cccnc3OC(C)C(F)(F)F)c12 (centres unmarked) [Compound 21-5, N-(3-(dimethyl-amino)propyl)-5-methyl-4-(2-(1,1,1-trifluoro-propan-2-yloxy)-pyridin-3-yl-amino)thieno[2,3-d]pyrimidine-6-carboxamide]"
2,0.007,"Cc1c(C(=O)NCCCN2CCCC2)sc2ncnc(Nc3ccc(F)cc3OC(CF)CF)c12 [Compound 23-10, 4-(2-(1,3-difluoro-propan-2-yloxy)-4-fluorophenylamino)-5-methyl-N-(3-(pyrrolidin-1-yl)propyl)thieno[2,3-d]pyrimidine-6-carboxamide]"
3,0.035,"Cc1c(C(=O)NCCCN2CCCC2)sc2ncnc(Nc3cccnc3OC(C)C)c12 [Compound 36-1, 4-(2-Isopropoxypyridin-3-ylamino)-5-methyl-N-(3-(pyrrolidin-1-yl)propyl)thieno[2,3-d]pyrimidine-6-carboxamide]"
4,0.044,Cc1c(C(=O)NCCCN2CCOCC2)sc2ncnc(Nc3cccnc3OC(C)C)c12 [Compound 36-4]
5,0.019,Cc1c(C(=O)NCCO)sc2ncnc(Nc3ccc(F)cc3OCC3CC3(F)F)c12 (centres unmarked) [Compound 32-20]
6,0.007,"Cc1c(C(=O)NCC#CCN(C)C)sc2ncnc(Nc3ccc(F)cc3OC(CF)CF)c12 [Compound 23-9, 4-(2-(1,3-difluoro-propan-2-yloxy)-4-fluorophenylamino)-N-(4-(dimethylamino)-but-2ynyl)-5-methyl-thieno[2,3-d]pyrimidine-6-carboxamide]"
7,0.078,"COCC(C)Oc1ncccc1Nc1ncnc2sc(C(=O)NCCO)c(C)c12 (centres unmarked) [Compound 28-4, N-(2-hydroxy-ethyl)-4-(2-(1-methoxy-propan-2-yloxy)pyridin-3-ylamino)-5-methylthieno-[2,3-d]-pyrimidine-6-carbox-amide]"
8,0.048,"Cc1c(C(=O)NCCO)sc2ncnc(Nc3cccnc3OCC(F)F)c12 [Compound 30-4, 4-(2-(2,2-difluoroethoxy)-pyridin-3-ylamino)-N-(2-hydroxy-ethyl)-5-methylthieno [2,3-d]pyrimi-dine-6-carboxamide]"
9,0.17,Cc1c(C(=O)NCCO)sc2ncnc(Nc3ccc(F)cc3OC(CO)CO)c12 [Compound 32-29]
10,0.078,"COC(=O)c1sc2ncnc(Nc3ccc(F)cc3OC(CF)CF)c2c1C [Compound 23-1, Methyl 4-(2-(1,3-difluoropropan-2-yloxy)-4-fluorophenylamino)-5-methyl-thieno[2,3-d]pyrimidine-6-carboxylate]"
11,0.008,Cc1c(C(=O)NCCO)sc2ncnc(Nc3ccc(F)cc3OC(CF)CF)c12 [Compound 23-8]
12,0.059,"Cc1c(C(=O)NCCCN(C)C)sc2ncnc(Nc3ccc(F)cc3OC(C)CC(C)(C)O)c12 (centres unmarked) [Compound 20-3, N-(3-(Dimethylamino)propyl)-4-(4-fluoro-2-(4-hydroxy-4-methylpentan-2-yloxy)phenylamino)-5-methyl-thieno[2,3-d]pyrimidine-6-carboxamide trifluoroacetate]"
13,0.065,Cc1c(C(=O)NCCO)sc2ncnc(Nc3ccc(F)cc3OCCO)c12 [Compound 32-33]
14,0.142,"COC(=O)c1sc2ncnc(Nc3ccc(F)cc3OC(C)CC(C)(C)O)c2c1C (centres unmarked) [Compound 20-1, Methyl 4-(4-fluoro-2-(4-hydroxy-4-methylpentan-2-yloxy)phenylamino)-5-methyl-thieno[2,3-d]pyrimidine-6-carboxylate]"
15,0.027,Cc1c(C(N)=O)sc2ncnc(Nc3ccc(F)cc3OCCO)c12 [Compound 32-32]
16,0.078,Cc1c(C(=O)NCCCN(C)C)sc2ncnc(Nc3ccc(F)cc3OCC3(CC#N)CC3)c12 [Compound 32-15]
17,0.004,"Cc1c(C(N)=O)sc2ncnc(Nc3ccc(F)cc3OC(CF)CF)c12 [Compound 23-3, 4-(2-(1,3-Difluoropropan-2-yloxy)-4-fluorophenylamino)-5-methyl-thieno[2,3-d]pyrimidine-6-carboxamide]"
18,0.02,"Cc1c(C(=O)O)sc2ncnc(Nc3cccnc3OCC(F)F)c12 [Compound 30-2, 4-(2-(2,2-Difluoroethoxy)pyridin-3-ylamino)-5-methylthieno[2,3-d]pyrimidine-6-carboxylic acid]"
19,0.019,Cc1c(C(=O)O)sc2ncnc(Nc3ccc(F)cc3OCC3(CC#N)CC3)c12 [Compound 32-2]
20,0.02,"Cc1c(C(=O)NCCO)sc2ncnc(Nc3cccnc3OC(C)C(F)(F)F)c12 (centres unmarked) [Compound 21-8, 5-Methyl-4-[2-(2,2,2-trifluoro-1-methyl-ethoxy)-pyridin-3-ylamino]-thieno[2,3-d]pyrimidine-6-carboxylic acid (4-hydroxy-ethyl)-amide]"
21,0.79,Cc1c(C(=O)NCCCN(C)C)sc2ncnc(Nc3ccc(F)cc3OCC3CCOCC3)c12 [Compound 26-3]
22,0.086,"Cc1c(C(N)=O)sc2ncnc(Nc3cccnc3OCCO)c12 [Compound 29-3, 4-(2-(2-Hydroxyethoxy)pyridin-3-ylamino)-5-methylthieno[2,3-d]pyrimidine-6-carboxamide]"
23,0.01,"Cc1c(C(=O)NCCCN(C)C)sc2ncnc(Nc3ccc(F)cc3OC(CF)CF)c12 [Compound 23-6, 4-(2-(1,3-difluoro-propan-2-yloxy)-4-fluorophenylamino)-N-(3-(dimethylamino)-propyl)-5-methyl-thieno[2,3-d]-pyrimidine-6-carboxamide]"
24,0.011,Cc1c(C(=O)NC2CCN(C)CC2)sc2ncnc(Nc3ccc(F)cc3OC(C)CF)c12 (centres unmarked) [Compound 32-45]
25,0.025,COCC(CF)Oc1cc(F)ccc1Nc1ncnc2sc(C(=O)NCCCN(C)C)c(C)c12 (centres unmarked) [Compound 32-24]
26,0.054,"Cc1c(C(=O)NCC(C)O)sc2ncnc(Nc3cccnc3OC(C)C)c12 (centres unmarked) [Compound 36-13, N-(2-Hydroxypropyl)-4-(2-isopropoxypyridin-3ylamino)-5-methylthieno[2,3-d]pyrimidine-6-carboxamide]"
27,0.065,Cc1c(C(=O)NCCO)sc2ncnc(Nc3ccc(F)cc3OCC3(CC#N)CC3)c12 [Compound 32-14]
28,0.012,Cc1c(C(=O)O)sc2ncnc(Nc3ccc(F)cc3OCC(C)F)c12 (centres unmarked) [Compound 32-12]
